# Measurements: patent US6596765B2, “Treatment of ocular hypertension and glaucoma” (Sucampo AG, priority 2000, dated 2003)
# How the values were obtained:
# [1] = Ocular side effects of topical application (stated, no method described); assay type: in vivo; settings: 15-keto latanoprost at the dosages described herein
# monkey eye [2] = assay: IOP after additional instillation 12 hours after instillation of 0.005% latanoprost in monkeys (Example 2); assay type: in vivo, cynomolgus monkeys; settings: 30 μL; for effect on IOP of additional instillation, compared with 0.005% latanoprost alone: 0.0005% solution, instilled 12 hours after instillation of 0.005% latanoprost, IOP followed to 32 hours
# Excerpt: This Example illustrates the employment of a low dose of 15-keto latanoprost for maintaining a low IOP level following single administration of another IOP reducing agent for obtaining a rapid drop in IOP.
# The changes of IOP in 3 different treatment groups were compared to investigate the significance of the presence of 15-keto acid of latanoprost, a 13,14-dihydro-15-keto type metabolite, in maintaining the IOP lowering effect observed after instillation of latanoprost.
# 15-keto-latanoprost and latanoprost which were synthesized in Ueno Institute for Medical Science were used.
# Six male cynomolgus monkeys (body weight: 3.2-3.8 kg) were used. These monkeys were housed individually in cages for monkeys in a monkey rearing room which was maintained at room temperature of 24±1° C., relative humidity of 55±10%, and ventilation of about 12 times/hour and a 12-hour light-dark cycle (fluorescent lighting: 8:00 a.m. to 8:00 p.m.). The animals were given solid food for monkeys (PS, Oriental Yeast Co., Ltd.), vegetables and fruits, and allowed free access to tap water from an automatic dispenser. The healthy animals without abnormalities in the anterior segment were used in this study.
# 0.0005% and 0.005% latanoprost eye drops and 0.0005% 15-keto-latanoprost eye drops were prepared with a vehicle consisting of the following composition. The composition of the vehicles in 1 mL was as follows: sodium chloride (4.1 mg), sodium hydrogenphosphate-1H2O (4.6 mg), disodium hydrogenphosphate-2H2O (5.94 mg), benzalkonium chloride (0.200 mg) and water for injection (1 mL).
# In the present study, changes in IOP after instillation of 0.005% latanoprost alone at the clinical concentration were compared with those in IOP after additional instillation of 0.0005% latanoprost or 0.0005% 15-keto-latanoprost 12 hours after instillation of 0.005% latanoprost to investigate the significance of the presence of a 13,14-dihydro-15-keto type metabolite in maintaining the IOP lowering effect observed after instillation of latanoprost.
# The following 3 treatments were given to the right eye of monkeys at the intervals of at least 10 days. […]
# After the ocular surface of monkeys was anesthetized with 0.4% oxybuprocaine hydrochloride (Benoxil® 0.4% solution, Santen Pharmaceutical Co., Ltd.) under i.m. systemic anesthesia with 5-7.5 mg/kg of ketamine hydrochloride, IOP was measured with an applanation pneumatonograph (Alcon Japan Ltd.). IOP was measured before instillation and at 4, 8, 12, 16, 20, 24, 28 and 32 hours after instillation of 0.005% latanoprost.
# monkey eye [3] = assay: IOP test after a single topical ocular instillation in monkeys (Example 1); assay type: in vivo, cynomolgus monkeys; settings: 0.0005% solution, 35 μL/eye; for intraocular pressure lowering effect (in words): compared with vehicle-treated contralateral eye, Student's t-test
# Excerpt: This Example is an IOP test using the monkey eye in which about one tenth the clinical dose of latanoprost is compared in IOP reduction with the same dose of 15-keto latanoprost.
# The intraocular pressure lowering effects of the 0.0005% solution of 13,14-dihydro-15-keto-17-phenyl-18,19,20-trinor-PGF2α-isopropyl ester (15-keto-latanoprost) and the 0.0005% solution of 13,14-dihydro-17-phenyl-18,19,20-trinor-PGF2α-isopropyl ester (latanoprost) were compared following a single, topical ocular instillation in monkeys.
# The solution containing 15-keto-latanoprost or latanoprost at 0.0005% was prepared with the following vehicle. Composition of the vehicle^1) (/mL): NaCl (4.1 mg), NaH2PO4—H2O (4.6 mg), Na2HPO4—2H2O (5.94 mg), Benzalkonium Chloride (0.2 mg) and water for injection
# Five male cynomolgus monkeys purchased from Kasyo Co., Ltd. were used. These monkeys were housed individually in cages for monkeys in a room which was maintained at room temperature of 24±1° C., relative humidity of 55±10%, ventilation rate of about 12 times/hour and 12-hour light-dark cycle (fluorescent lighting: 8:00 a.m. to 8:00 p.m.). The animals were given food pellets for monkeys (PS, Oriental Yeast Co., Ltd.), vegetables and fruits, and allowed free access to tap water from an automatic dispenser. The healthy animals without abnormalities in the anterior segment of the eye were used in this study.
# Five monkeys were divided into 2 groups of the group 1 (3 monkeys) and group 2 (2 monkeys). […]
# The animals were systemically anesthetized by an intramuscular injection of 5 mg/kg of ketamine hydrochloride (Ketalar®50, Sankyo Co., Ltd.), and the anterior segment of both eyes was anesthetized by a instillation of 0.4% oxybuprocaine hydrochloride (Benoxil® 0.4% solution, Santen Pharmaceutical Co., Ltd.). The animals were fixed in a sitting position, and the intraocular pressure was measured by use of an applanation pneumatonograph (Alcon Japan Ltd.) before, and 2, 4, 8, 12 and 24 hours after the instillation. […]
# The data were statistically analyzed with Student's t-test.
# [4] = latanoprost at its clinical concentration; cited from earlier work
# [5] = single instillation of 0.005% latanoprost (clinical concentration), right eye
SMILES,"ocular side effects (iridic pigmentation, initial IOP spike, hyperemia) [1]","effect on IOP of additional instillation, compared with 0.005% latanoprost alone (monkey eye [2])","intraocular pressure lowered as compared with the pre-treatment value (monkey eye [3]; 8 hours after the instillation, n=5) [mmHg]",intraocular pressure lowering effect (in words) (monkey eye [3]),"ocular side effects (iris pigmentation, IOP spike, hyperemia) [4]",time at which intraocular pressure returned to the predosing level (monkey eye [2]; [5]) [h],time of maximum reduction of intraocular pressure after instillation (monkey eye [2]; [5]) [h]
"CC(C)OC(=O)CCC/C=C\C[C@@H]1[C@@H](CCC(=O)CCc2ccccc2)[C@H](O)C[C@@H]1O [15-keto-latanoprost, 13,14-dihydro-15-keto-17-phenyl-18,19,20-trinor-PGF2α-isopropyl ester]","does not cause iridic pigmentation, an initial IOP spike nor any hyperemia",maintained at significantly low levels,2.4,statistically significant,–,–,–
"CC(C)OC(=O)CCC/C=C\C[C@@H]1[C@@H](CC[C@@H](O)CCc2ccccc2)[C@H](O)C[C@@H]1O [latanoprost, 13,14-dihydro-17-phenyl-18,19,20-trinor-PGF2α-isopropyl ester]",–,did not affect IOP,–,did not lower the intraocular pressure,"can cause pigmentation of the iris, a mild IOP spike and/or mild hyperemia",24,12
